Data published in PMC5306082, “Physiologically based kinetic modeling of the bioactivation of myristicin” (Archives of Toxicology, 2016).

Legend:
[1] = Glucuronidation of 1′-hydroxymyristicin, human liver S9; assay type: in vitro ADME
Description: (§1) The kinetic constants for the metabolic conversion of 1′-hydroxymyristicin to 1′-hydroxymyristicin glucuronide (HMG) by both male rat and human liver fractions were determined as described previously for the related 1′-hydroxyalkenylbenzenes (Punt et al. [2008]; van den Berg et al. [2012]; Punt et al. [2009]; Martati et al. [2011], [2012]; Al-Subeihi et al. [2011], [2012]). Briefly, incubations contained (final concentrations) 10 mM of UDPGA and 0.5 mg/ml of male Sprague–Dawley or pooled gender human S9 protein in 0.2 M Tris–HCl (pH 7.4) containing 10 mM of MgCl2. To overcome enzyme latency and to obtain maximal glucuronidation activity, incubations containing S9 were pretreated on ice with 0.025 mg/ml alamethicin added from a 200 times concentrated stock dissolved in methanol (Fisher et al. [2000]; Lin and Wong [2002]). After 15 min of alamethicin treatment, samples were pre-incubated at 37 °C for 1 min, and reactions were subsequently started by adding 1′-hydroxymyristicin at final concentrations of 10 to 1200 μM. 1′-Hydroxymyristicin was added from 100 times concentrated stock solutions in DMSO. The reaction mixtures were incubated for 30 and 180 min for rat and human, respectively, and terminated by adding 25 µl (0.25 times the incubation volume) of ice-cold ACN. Blank incubations were carried out in the absence of the cofactor UDPGA. Experiments were performed in triplicate. The longer incubation time in human samples was required due to the lower rate of glucuronidation. The formation of 1′-hydroxymyristicin glucuronide was linear with time and the S9 protein concentration under the experimental conditions described. All samples were centrifuged for 5 min at 16,000×g, and the supernatant was stored at −20 °C until ultra-performance liquid chromatography (UPLC) analysis.
(§2) 1′-Hydroxymyristicin glucuronide was estimated based on the comparison of the peak area of the formed metabolite to the calibration curve of 1′-hydroxymyristicin at a wavelength of 210 nm. The flow rate was 0.6 ml/min. The gradient was made using a mixture of ACN and ultrapure water containing 0.1 % (v/v) TFA.

[2] = Glucuronidation of 1′-hydroxymyristicin, male rat liver S9; assay type: in vitro ADME
Description: as §1, §2

[3] = Oxidation of 1′-hydroxymyristicin to 1′-oxomyristicin, rat liver microsomes; assay type: in vitro ADME
Description: (§3) The kinetic constants for the enzymatic conversion of 1′-hydroxymyristicin to 1′-oxomyristicin were determined using incubation mixtures containing (final concentrations) 3 mM NAD^+, 2 mM GSH, and 1 mg/ml rat or human liver microsomes in 0.2 M Tris–HCl (pH 7.4). GSH was added to the incubation mixtures to trap the reactive 1′-oxo metabolite formed after oxidation of 1′-hydroxymyristicin. The level of GSH in the incubations was optimized in a previous study to obtain maximum scavenging of 1′-oxoestragole (Punt et al. [2009]). To this end, incubations were performed in the presence of increasing concentrations of GSH, ranging from 2 to 10 mM. […] Kinetic constants for this reaction in rat and human liver were derived by performing incubations with NAD^+ as a cofactor, given that in rat and human liver, NAD^+ is mainly present in an oxidized form with levels of NAD^+ being much higher than those of NADH. In a previous study, it was shown that the highest level of 1′-hydroxy alkenylbenzene oxidation occurs in incubations with microsomes in the presence of NAD^+ as cofactor. […] The enzyme responsible for the oxidation may be 17β-hydroxysteroid dehydrogenase type 2 (17β-HSD2) (Punt et al. [2010]). Prior to the addition of 1′-hydroxymyristicin at final concentrations ranging between 10 and 4000 μM to the incubation mixture from 100 times concentrated stock solutions in DMSO, samples were pre-incubated for 1 min at 37 °C. Reactions were terminated after 10 min of incubation at 37 °C by adding 25 μl (0.25 times the incubation volume) of ice-cold ACN. The formation of the GSH conjugate of 1′-oxomyristicin (GS-1′-oxomyristicin) was linear with time and microsomal protein concentration under the experimental conditions used. Blank incubations were performed without the cofactor NAD^+. Incubations were performed in triplicate. All samples were centrifuged for 5 min at 13,000×g, and the supernatant was stored at −20 °C until UPLC analysis.
(§4) Quantification of GS-1′-oxomyristicin was based on a calibration curve of the GSH adduct of the synthesized 1′-oxymyristicin made as previously described (van den Berg et al. [2012]; Punt et al. [2009]; Martati et al. [2011]; Al-Subeihi et al. [2011]). In short, a 60 μM concentration of the synthetic standard of 1′-oxomyristicin, dissolved in ACN, was incubated with different concentrations of GSH (i.e., 0–20 μM) in 0.2 M Tris–HCl (pH 7.4) for 6 h at 37 °C, resulting in full conversion of the GSH to GS-1′-oxymyristicin. Quantification was done by comparing the peak areas of the formed GS-1′-oxo metabolite in the incubation mixtures with peak areas of the GS-1′-oxymyristicin calibration curve thus obtained at a wavelength of 212 nm. The gradient for analysis of the metabolite consisted of a mixture of ACN and ultrapure water containing 0.1 % (v/v) TFA. The flow rate was 0.6 ml/min, The gradient started with 10 % ACN, increased to 30 % ACN over 2.5 min, after which ACN was increased to 80 % over 0.5 min, kept at 80 % for 0.5 min, followed by a decrease to 10 % over 0.5 min, and finally kept at 10 % for 0.5 min.

[4] = Oxidation of 1′-hydroxymyristicin to 1′-oxomyristicin, human liver microsomes; assay type: in vitro ADME
Description: as §3, §4

[5] = Microsomal conversion of myristicin, male rat liver microsomes; assay type: in vitro ADME; details: for Vmax / In vitro catalytic efficiency: formation of the metabolite from myristicin; for Vmax: NADPH, mean of three ± SD; for In vitro catalytic efficiency: Vmax/Km × 1000; for Scaled Vmax, in vivo / In vivo catalytic efficiency: from myristicin; for Scaled Vmax, in vivo: microsomal protein yield 35 mg/g liver; for In vivo catalytic efficiency: scaled Vmax/Km
Description: (§5) First, it was determined which organs are involved in the biotransformation of myristicin in rat and human. For this purpose, liver, kidney, lung, and small intestine microsomes from male Sprague–Dawley rat and pooled gender human were used. Incubations were performed by adding myristicin to incubation mixtures containing 1 mg/mL of the microsomal protein preparations and 3 mM NADPH in 0.2 M Tris–HCl (pH 7.4). After 1 min of pre-incubation at 37 °C, myristicin (final concentration, 1000 μM) was added from a 100 times concentrated stock solution in DMSO so that the final DMSO content was 1 % (v/v). Incubations were carried out for 30 min after which the reactions were terminated by adding 25 µl (0.25 times the incubation volume) of ice-cold ACN. Samples were centrifuged for 5 min at 13,000×g, and the supernatant was stored at −20 °C until UPLC analysis. As metabolism of myristicin was observed only in incubations with liver microsomes for male rats and pooled gender human, the determination of kinetic constants for the formation of microsomal metabolites was performed only for the liver fractions. Incubations to determine kinetic constants were performed following the conditions described above using final concentrations of myristicin from 25 to 1000 μM for rat and human liver. In all incubations, the final concentration of DMSO, in which myristicin was dissolved, was kept at 1 % (v/v). The formation of different microsomal metabolites was linear with time and microsomal protein concentration under the conditions described. Blank incubations were performed in the absence of the cofactor NADPH. All incubations were performed in triplicate.
(§6) Secondary metabolism of the relevant 1′-hydroxy metabolite of myristicin was taken into account by determining the kinetic constants for its conversion in (a) glucuronidation, (b) sulfation, and (c) oxidation, again under conditions that allowed adequate definition of kinetic constants and with <10 % substrate conversion. Incubation samples were subjected to UPLC analysis that was performed as described previously (Punt et al. [2008]). Identification was achieved by comparing the UV spectra of the formed metabolites to the spectra of the synthesized 1′-hydroxymyristicin and 1′-oxomyristicin reference standards. Quantification of all formed metabolites was done by comparing the peak areas to those of calibration curves of the corresponding reference compounds, determined using UPLC with photodiode array detection (UPLC-PDA). The UPLC system was composed of a Waters (Waters, Milford, MA) Acquity solvent manager, sample manager, and photodiode array detector, equipped with Water Acquity UPLC BEH C18 column.
(§7) The gradient for analysis of microsomal metabolites was performed with 100 % ACN and ultrapure water containing 0.1 % (v/v) TFA. The flow rate was 0.6 ml/min. The gradient started at 10 % ACN, increased to 50 % ACN over 4 min, increased to 80 % over 0.5 min, followed by decrease to 10 % ACN over 0.5 min, and finally kept at 10 % for 1 min.

[6] = Microsomal conversion of myristicin, human liver microsomes; assay type: in vitro ADME; details: for Vmax / In vitro catalytic efficiency: formation of the metabolite from myristicin; for Vmax: NADPH, mean of three ± SD; for In vitro catalytic efficiency: Vmax/Km × 1000; for Scaled Vmax, in vivo / In vivo catalytic efficiency: from myristicin; for Scaled Vmax, in vivo: microsomal protein yield 32 mg/g liver; for In vivo catalytic efficiency: scaled Vmax/Km
Description: as §5, §6, §7

DNA = details: ref Zhou et al. [2007a]; Kobets et al. [2016]; Phillips et al. [1984]; Randerath et al. [1984]; cited from earlier work
[7] = system: freshly isolated rat hepatocytes in primary culture; details: 10^−6 to 10^−3 M; ref Howes et al. [1990]; cited from earlier work
[8] = 1′-hydroxymyristicin to its glucuronide, S9, UDPGA
[9] = 1′-hydroxymyristicin to its glucuronide, Vmax/Km
[10] = glucuronidation of 1′-hydroxymyristicin, S9 protein yield 143 mg/g liver
[11] = glucuronidation of 1′-hydroxymyristicin, scaled Vmax/Km
[12] = 1′-hydroxymyristicin to 1′-oxomyristicin, Vmax/Km
[13] = 1′-hydroxymyristicin to 1′-oxomyristicin, microsomes, NAD+, GSH trapping
[14] = oxidation of 1′-hydroxymyristicin, scaled Vmax/Km

## C=CC(OC1OC(C(=O)O)C(O)C(O)C1O)c1cc(OC)c2c(c1)OCO2 (stereo not shown) [1′-Hydroxymyristicin glucuronide, 1′-hydroxymyristicin glucuronide]
[1]; [8]
  Vmax: 0.08 ± 0.03 nmol min^−1 (mg microsomal or S9 protein)^−1
[1]; [9]
  In vitro catalytic efficiency: 0.025 μl min^−1 (mg microsomal or S9 protein)^−1
[1]; both sexes, human, pH 7.4
  Km at 180 min: 3140 ± 2430 µM
[1]; [10]
  Scaled Vmax, in vivo: 0.6864 μmol/h/g tissue
[1]; [11]
  In vivo catalytic efficiency: 0.0002 ml/h/g tissue
[2]; [8]
  Vmax: 8.6 ± 2.0 nmol min^−1 (mg microsomal or S9 protein)^−1
[2]; [9]
  In vitro catalytic efficiency: 10.287 μl min^−1 (mg microsomal or S9 protein)^−1
[2]; [10]
  Scaled Vmax, in vivo: 73.788 μmol/h/g tissue
[2]; [11]
  In vivo catalytic efficiency: 0.0883 ml/h/g tissue
[2]; male, Sprague-Dawley, rat, pH 7.4
  Km at 30 min: 836 ± 336 µM

## C=CC(=O)c1cc(OC)c2c(c1)OCO2 [1′-Oxomyristicin, 1′-oxomyristicin]
[3]; [12]
  In vitro catalytic efficiency: 7.369 μl min^−1 (mg microsomal or S9 protein)^−1
[3]; [13]
  Vmax: 43.64 ± 20.9 nmol min^−1 (mg microsomal or S9 protein)^−1
[3]; oxidation of 1′-hydroxymyristicin, microsomal protein yield 35 mg/g liver
  Scaled Vmax, in vivo: 91.644 μmol/h/g tissue
[3]; [14]
  In vivo catalytic efficiency: 0.0155 ml/h/g tissue
[4]; [12]
  In vitro catalytic efficiency: 9.864 μl min^−1 (mg microsomal or S9 protein)^−1
[4]; [13]
  Vmax: 32 ± 14 nmol min^−1 (mg microsomal or S9 protein)^−1
[4]; oxidation of 1′-hydroxymyristicin, microsomal protein yield 32 mg/g liver
  Scaled Vmax, in vivo: 61.44 μmol/h/g tissue
[4]; [14]
  In vivo catalytic efficiency: 0.0189 ml/h/g tissue

## COc1cc(CC(O)CO)cc2c1OCO2 (stereo not shown) [2′,3′-Dihydroxymyristicin]
[5]
  Vmax: 0.44 ± 0.08 nmol min^−1 (mg microsomal or S9 protein)^−1
  In vitro catalytic efficiency: 27.5 μl min^−1 (mg microsomal or S9 protein)^−1
  Scaled Vmax, in vivo: 0.924 μmol/h/g tissue
  In vivo catalytic efficiency: 0.0578 ml/h/g tissue
[6]
  Vmax: 0.08 ± 0.01 nmol min^−1 (mg microsomal or S9 protein)^−1
  In vitro catalytic efficiency: 2.424 μl min^−1 (mg microsomal or S9 protein)^−1
  Scaled Vmax, in vivo: 0.154 μmol/h/g tissue
  In vivo catalytic efficiency: 0.0047 ml/h/g tissue

## COc1cc(/C=C/CO)cc2c1OCO2 [3′-Hydroxymyristicin, 3′-hydroxymyristicin]
[5]
  Vmax: 0.47 ± 0.09 nmol min^−1 (mg microsomal or S9 protein)^−1
  In vitro catalytic efficiency: 5.663 μl min^−1 (mg microsomal or S9 protein)^−1
  Scaled Vmax, in vivo: 0.987 μmol/h/g tissue
  In vivo catalytic efficiency: 0.0119 ml/h/g tissue
[6]
  Vmax: 0.29 ± 0.14 nmol min^−1 (mg microsomal or S9 protein)^−1
  In vitro catalytic efficiency: 0.178 μl min^−1 (mg microsomal or S9 protein)^−1
  Scaled Vmax, in vivo: 0.557 μmol/h/g tissue
  In vivo catalytic efficiency: 0.0003 ml/h/g tissue

## C=CCc1ccc(OC)cc1 [estragole]
DNA
  DNA adduct formation, result: positive results

## C=CCc1ccc(OC)c(OC)c1 [methyleugenol]
DNA
  DNA adduct formation, result: positive results
[7]
  unscheduled DNA synthesis (UDS): induced unscheduled DNA synthesis (UDS)
